Numbering of substitutions follows the chain as printed. Entries after “also recorded” stand apart in the source; their conditions may differ.
Columns and labels:
Y289L GalT = molecular target: T1, Y289L GalT (Bos taurus, UniProt P08037, Y289L); experiment: Transfer of keto-sugar from labeling agent 1 to O-GlcNAc peptide by Y289L mutant GalT, LC-MS; assay type: biochemical; settings: peptide TAPTS(O-GlcNAc)TIAPG, 6 h at 4° C., diammonium salt
T1 construct: made in house
T1 sequence (P08037 1-402 Y289L): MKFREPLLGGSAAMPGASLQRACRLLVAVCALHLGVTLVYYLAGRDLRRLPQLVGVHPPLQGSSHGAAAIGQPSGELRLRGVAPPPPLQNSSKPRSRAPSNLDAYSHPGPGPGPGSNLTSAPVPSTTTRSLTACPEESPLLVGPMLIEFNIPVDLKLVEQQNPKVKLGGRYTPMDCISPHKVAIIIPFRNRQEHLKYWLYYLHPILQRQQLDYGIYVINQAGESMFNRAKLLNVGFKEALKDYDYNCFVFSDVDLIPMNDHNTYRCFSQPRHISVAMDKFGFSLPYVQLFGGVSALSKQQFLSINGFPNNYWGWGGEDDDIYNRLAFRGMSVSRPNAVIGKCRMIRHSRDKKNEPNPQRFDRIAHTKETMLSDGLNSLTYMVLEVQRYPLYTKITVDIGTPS
Description: The peptide TAPTS(O-GlcNAc)TIAPG (SEQ ID NO: 1) (10 μM) was dissolved in 25 mM MOPS buffer, pH 6.7 containing 5 mM MnCl2 and 8 μM reference peptide (ThermoFinnigan, San Jose, Calif.). Labeling agent 1 and mutant Y289L GalT were added to final concentrations of 1 mM and 100 ng/μL, respectively. Prior to enzyme addition, an aliquot of the—reaction was removed as an initial time point for LC-MS analysis. Reactions were incubated at 4° C. for 6 h, after which an aliquot of the reaction mixture was removed for product analysis by LC-MS. The remainder of the reaction was diluted 5-fold into PBS (final concentration: 10.1 mM Na2HPO4, 1.76 mM KH2HPO4, […], 2.7 mM KCl, pH 6.7), and N-(aminooxyacetyl)-N′-(D-biotinoyl) hydrazine (Molecular Probes, Eugene, Oreg.) was added to a final concentration of 12 mM. After 8 h at 25° C., the extent of biotin-oxime product was measured by LC-MS. […] Labeling reactions with wild-type GalT were performed identically, with the exception that reactions were incubated at 37° C. for 12 h. […]
Base peak chromatograms are shown before and 6 h after the addition of ketone analogue 1 and Y289L GalT. […] For reaction with detection agent aminooxy biotin, formation of the oxime product was monitored using an extracted ion chromatogram within the mass range 1319.0-1321.0 m/z and 1633.0-1635.5 m/z, which was generated post-acquisition via the Xcalibur™ software. […]

GalT = molecular target: T2, GalT (Bos taurus, UniProt P08037); settings: relative to Gal; cited from earlier work
T2 sequence (P08037 1-402): T1 sequence (P08037 1-402 Y289L) with L289Y

[1] = tested on: O-GlcNAc pendant moiety on α-crystallin; experiment: Western / lectin blotting of α-crystallin with existing O-GlcNAc detection reagents; assay type: binding, bovine; settings: blot, chemiluminescence, even when 10 μg of α-crystallin was used
Description: α-Crystallin, and appropriate positive and negative controls were resolved by 15% SDS-PAGE. All Western blotting steps were performed at RT unless otherwise noted. […] RL-2 antibody, at a concentration of 1:2000, was subsequently added in blocking buffer and blots were incubated for 1.5-2 h. Blots were then rinsed with hsTBST and washed 6×5 min. Secondary goat anti-mouse IgG antibody was applied at a concentration of 1:10,000 in hsTBS-T containing 1% BSA. After 1 h, blots were rinsed and washed as described before chemiluminescence detection on film (FIG. 11A). Western blotting with the CTD110.6 antibody was performed according to manufacturer's recommendations. Briefly, α-crystallin and controls were transferred to PVDF and washed 2×15 min with TBS-0.1% tween-20 (TBST). Blots were blocked in TBST containing 3% BSA for 1 h, rinsed 2× with TBST, and probed with CTD110.6 (1:2500) in blocking buffer for 1 h. Blots were then rinsed 2× with TBST and washed 2×5 min. Secondary goat anti-mouse IgM antibody was applied at a concentration of 1:10,000 in blocking buffer for 1 h, and blots were subsequently rinsed with TBST and washed 5×5 min before chemiluminescence detection on film (FIG. 11B).
WGA western blotting was performed essentially as described (25, 27). Briefly, α-crystallin and controls were resolved by 15% SDS-PAGE and electrophoretically transferred to nitrocellulose. […]

Uridine 5′-diphospho-2-acetonyl-2deoxy-a-D-galactopyranose diammonium salt [Labeling agent 1]
conversion of peptide to ketone-labeled product (Y289L GalT): Complete conversion

OCC1OC(O)CC(O)[C@H]1O (stereo partly drawn) [2-deoxy-Gal]
rate of transfer by GalT (GalT): rates comparable to Gal

B1: WGA: wheat-germ agglutinin lectin, existing method to detect GlcNAc (protein)
chain: QRCGEQGSNMECPNNLCCSQYGYCGMGGDYCGKGCQNGACWTSKRCGSQAGGATCTNNQCCSQYGYCGFGAEYCGAGCQGGPCRADIKCGSQAGGKLCPNNLCCSQWGFCGLGSEFCGGGCQSGACSTDKPCGKDAGGRVCTNNYCCSKWGSCGIGPGYCGAGCQSGGCDG
detection of O-GlcNAc on α-crystallin [1]: failed to detect; also recorded: could not detect

From patent US8927300B2, “Method and compositions for the detection of protein glycosylation” (California Institute of Technology, priority 2003, dated 2015)
